pIC50: −log10 of the molar value. Where a name gives a salt, the structure may show the parent alone.
Molecular target: muscarinic receptors in the rat central nervous system
Assay: Binding affinity at muscarinic receptors in the rat central nervous system, [^3 H]-QNB IC50
Conditions: mean from one to three experiments, each in triplicate
Excerpt: Binding affinities and agonist activity in a series of
amidine derivatives at muscarinic receptors in the rat
central nervous system. Data represent the mean from one
to three experiments, each performed in triplicate.

`CN(C)NC(=O)C1CN=C(N)NC1` (stereo not shown) [CDD-0126-A, 2-Amino-1,4,5,6-tetrahydropyrimidine-5-carboxylic-(N,N-dimethyl)hydrazide HCl] showed a pIC50 of 4.30.
